In patent US11926642B2, “Compounds and methods for the treatment of COVID-19” (priority 2020, dated 2024):
Several values for one entry are separate records, joined by “and”; a condition that tells them apart may be missing. Equal entries are not always repeated. Where two headings read alike, the source gives them in different places.

Experiments:
[1] = tested on: SARS-CoV-2; test: Antiviral activity in HeLa-ACE2 cells, high content imaging with convalescent sera; type: cell-based, USA-WA1/2020 SARS-CoV-2
[2] = tested on: SARS-CoV-2; test: Antiviral activity in A549-ACE2 cells, high content imaging of virus N protein; type: cell-based, USA-WA1/2020 SARS-CoV-2; conditions: for EC50 / EC90: Severe acute respiratory syndrome coronavirus 2, A549-ACE2
[3] = tested on: SARS-CoV-2; test: microbe, parasite or virus in culture; type: cell-based, Washington SARS-CoV-2
[4] = not given; remark: listed apart in the source
[5] = molecular target: hERG (Homo sapiens, UniProt Q12809)
Sequence of hERG (Q12809 whole entry): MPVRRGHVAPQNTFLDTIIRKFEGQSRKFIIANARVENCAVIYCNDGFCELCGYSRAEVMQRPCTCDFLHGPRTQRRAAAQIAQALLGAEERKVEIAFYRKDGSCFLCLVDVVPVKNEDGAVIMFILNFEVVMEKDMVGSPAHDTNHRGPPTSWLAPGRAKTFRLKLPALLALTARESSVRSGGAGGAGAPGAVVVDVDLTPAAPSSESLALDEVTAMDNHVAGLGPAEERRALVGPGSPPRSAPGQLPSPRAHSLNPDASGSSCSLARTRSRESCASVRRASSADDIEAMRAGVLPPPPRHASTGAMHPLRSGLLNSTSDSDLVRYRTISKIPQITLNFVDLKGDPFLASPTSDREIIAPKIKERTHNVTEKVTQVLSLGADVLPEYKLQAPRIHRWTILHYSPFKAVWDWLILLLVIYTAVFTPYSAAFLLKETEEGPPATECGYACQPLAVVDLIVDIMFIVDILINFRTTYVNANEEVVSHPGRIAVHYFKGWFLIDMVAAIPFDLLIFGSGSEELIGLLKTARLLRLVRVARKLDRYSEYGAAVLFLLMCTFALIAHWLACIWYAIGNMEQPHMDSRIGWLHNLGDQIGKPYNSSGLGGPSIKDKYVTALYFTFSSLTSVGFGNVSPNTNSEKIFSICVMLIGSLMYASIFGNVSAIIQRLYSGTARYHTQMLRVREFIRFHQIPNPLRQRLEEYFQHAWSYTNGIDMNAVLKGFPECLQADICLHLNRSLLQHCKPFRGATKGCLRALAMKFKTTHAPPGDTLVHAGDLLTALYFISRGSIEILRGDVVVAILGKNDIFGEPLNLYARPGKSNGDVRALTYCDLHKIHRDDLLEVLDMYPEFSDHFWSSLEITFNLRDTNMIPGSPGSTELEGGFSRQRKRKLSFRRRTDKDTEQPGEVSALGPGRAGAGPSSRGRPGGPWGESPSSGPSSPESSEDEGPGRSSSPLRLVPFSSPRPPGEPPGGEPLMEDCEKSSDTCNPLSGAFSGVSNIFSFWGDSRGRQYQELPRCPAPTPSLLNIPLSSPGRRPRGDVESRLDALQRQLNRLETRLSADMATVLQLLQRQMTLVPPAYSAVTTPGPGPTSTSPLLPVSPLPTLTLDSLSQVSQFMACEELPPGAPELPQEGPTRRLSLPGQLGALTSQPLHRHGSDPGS

[6] = tested on: HCoV-229E; test: microbe, parasite or virus in culture; type: cell-based
[7] = in vitro; conditions: human
[8] = physchem
[9] = not given; remark: listed apart in the source
[10] = molecular target: HKU5-CoV 3CLpro (Bat coronavirus HKU5, UniProt P0C6W4); type: biochemical
[11] = molecular target: OAT3 (Homo sapiens, UniProt Q8TCC7)
[12] = at clinically relevant exposures
[13] = molecular target: BCRP (Homo sapiens, UniProt Q9UNQ0)
Sequence of BCRP (Q9UNQ0 whole entry): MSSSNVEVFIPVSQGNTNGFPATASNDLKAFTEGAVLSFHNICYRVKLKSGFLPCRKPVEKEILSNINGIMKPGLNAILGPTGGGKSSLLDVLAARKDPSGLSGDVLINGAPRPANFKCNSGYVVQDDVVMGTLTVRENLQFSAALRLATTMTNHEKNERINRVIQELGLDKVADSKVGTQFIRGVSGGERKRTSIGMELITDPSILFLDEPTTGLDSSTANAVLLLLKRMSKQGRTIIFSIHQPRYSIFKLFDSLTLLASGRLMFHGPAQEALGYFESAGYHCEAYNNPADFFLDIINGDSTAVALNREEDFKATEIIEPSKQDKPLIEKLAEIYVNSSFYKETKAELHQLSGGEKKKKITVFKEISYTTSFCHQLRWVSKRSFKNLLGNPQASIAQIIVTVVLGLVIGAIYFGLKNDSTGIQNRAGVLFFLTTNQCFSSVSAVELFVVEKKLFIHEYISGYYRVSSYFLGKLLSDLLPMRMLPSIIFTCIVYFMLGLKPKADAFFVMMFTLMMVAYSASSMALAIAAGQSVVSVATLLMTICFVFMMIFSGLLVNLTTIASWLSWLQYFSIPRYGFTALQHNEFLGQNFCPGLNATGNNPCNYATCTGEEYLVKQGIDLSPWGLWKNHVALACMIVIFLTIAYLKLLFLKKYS

[14] = molecular target: CYP2D6 (Homo sapiens, UniProt P10635); test: biochemical
Sequence of CYP2D6 (P10635 whole entry): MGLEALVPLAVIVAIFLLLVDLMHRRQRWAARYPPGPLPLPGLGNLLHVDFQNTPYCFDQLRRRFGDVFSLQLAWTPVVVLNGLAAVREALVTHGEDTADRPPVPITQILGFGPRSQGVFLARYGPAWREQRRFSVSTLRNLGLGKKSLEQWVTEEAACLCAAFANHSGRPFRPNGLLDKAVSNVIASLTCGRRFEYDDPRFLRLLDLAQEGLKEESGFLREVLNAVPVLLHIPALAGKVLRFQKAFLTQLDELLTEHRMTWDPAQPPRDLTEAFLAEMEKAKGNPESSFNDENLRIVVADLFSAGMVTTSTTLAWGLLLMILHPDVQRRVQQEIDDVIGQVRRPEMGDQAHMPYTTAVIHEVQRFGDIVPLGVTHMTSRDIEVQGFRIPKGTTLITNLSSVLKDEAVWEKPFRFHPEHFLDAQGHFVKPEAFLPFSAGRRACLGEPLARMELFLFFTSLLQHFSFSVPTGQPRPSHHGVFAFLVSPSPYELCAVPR

[15] = tested on: SARS-CoV-2 Washington strain 1; type: cell-based
[16] = molecular target: FIPV-CoV-2 3CLpro (Feline coronavirus, UniProt Q98VG9); test: 3CLpro FRET protease activity assay, FIPV-CoV-2; type: biochemical
[17] = molecular target: CYP2C19 (Homo sapiens, UniProt P33261); test: biochemical
[18] = molecular target: IBV-CoV-2 3CLpro (Avian infectious bronchitis virus, UniProt P0C6Y1); test: 3CLpro FRET protease activity assay, IBV-CoV-2; type: biochemical
[19] = molecular target: OATP1B1 (Homo sapiens, UniProt Q9Y6L6)
[20] = continuous IV infusion, 4 days, male rats
[21] = molecular target: T1, Human Thrombin (Homo sapiens, UniProt P00734); test: biochemical
T1 construct: Human Thrombin

[22] = in vivo; conditions: rat, po, 2 mg/kg
[23] = in vitro
[24] = tested on: Vero E6-EGFP cells; conditions: read-out: CC50 μM GeoMean (95% CI)
[25] = molecular target: CYP2C9 (Homo sapiens, UniProt P11712); test: biochemical
Sequence of CYP2C9 (P11712 whole entry): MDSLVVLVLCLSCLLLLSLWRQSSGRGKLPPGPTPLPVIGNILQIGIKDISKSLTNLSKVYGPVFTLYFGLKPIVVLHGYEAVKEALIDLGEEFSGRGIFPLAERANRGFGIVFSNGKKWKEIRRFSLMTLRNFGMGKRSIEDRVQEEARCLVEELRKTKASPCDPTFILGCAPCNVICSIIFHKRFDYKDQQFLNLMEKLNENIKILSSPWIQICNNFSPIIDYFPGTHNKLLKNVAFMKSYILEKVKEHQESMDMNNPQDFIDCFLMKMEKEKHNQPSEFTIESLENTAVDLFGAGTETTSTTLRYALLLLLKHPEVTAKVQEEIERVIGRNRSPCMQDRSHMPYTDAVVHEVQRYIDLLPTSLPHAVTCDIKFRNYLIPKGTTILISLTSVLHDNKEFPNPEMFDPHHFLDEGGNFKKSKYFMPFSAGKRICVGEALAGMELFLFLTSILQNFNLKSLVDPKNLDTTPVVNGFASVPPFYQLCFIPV

[26] = molecular target: CYP1A2 (Homo sapiens, UniProt P05177); test: biochemical
[27] = molecular target: OCT2 (Homo sapiens, UniProt O15244)
[28] = molecular target: CYP2B6 (Homo sapiens, UniProt P20813); test: biochemical
[29] = molecular target: Human Cathepsin B (Homo sapiens, UniProt P07858); type: biochemical
[30] = molecular target: PEDV-CoV-2 3CLpro (Porcine epidemic diarrhea virus, UniProt P0C6Y4); test: 3CLpro FRET protease activity assay, PEDV-CoV-2; type: biochemical
[31] = molecular target: CYP3A4 (Homo sapiens, UniProt P08684)
[32] = molecular target: MATE1 (Homo sapiens, UniProt Q96FL8)
[33] = molecular target: Pgp (Homo sapiens, UniProt P08183)
[34] = molecular target: Human Caspase 2 (Homo sapiens, UniProt P42575); test: biochemical
Sequence of Human Caspase 2 (P42575 348-452): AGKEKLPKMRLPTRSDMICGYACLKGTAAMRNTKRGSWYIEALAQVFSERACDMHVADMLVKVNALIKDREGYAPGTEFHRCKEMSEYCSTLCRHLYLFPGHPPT
Sequence of Human Caspase 2 (P42575 170-325): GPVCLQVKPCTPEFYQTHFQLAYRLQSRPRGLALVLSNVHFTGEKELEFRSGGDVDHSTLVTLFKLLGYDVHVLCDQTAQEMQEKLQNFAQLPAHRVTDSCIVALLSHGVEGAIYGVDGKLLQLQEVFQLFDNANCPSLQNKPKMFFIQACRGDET

[35] = molecular target: OCT1 (Homo sapiens, UniProt O15245)
Sequence of OCT1 (O15245 whole entry): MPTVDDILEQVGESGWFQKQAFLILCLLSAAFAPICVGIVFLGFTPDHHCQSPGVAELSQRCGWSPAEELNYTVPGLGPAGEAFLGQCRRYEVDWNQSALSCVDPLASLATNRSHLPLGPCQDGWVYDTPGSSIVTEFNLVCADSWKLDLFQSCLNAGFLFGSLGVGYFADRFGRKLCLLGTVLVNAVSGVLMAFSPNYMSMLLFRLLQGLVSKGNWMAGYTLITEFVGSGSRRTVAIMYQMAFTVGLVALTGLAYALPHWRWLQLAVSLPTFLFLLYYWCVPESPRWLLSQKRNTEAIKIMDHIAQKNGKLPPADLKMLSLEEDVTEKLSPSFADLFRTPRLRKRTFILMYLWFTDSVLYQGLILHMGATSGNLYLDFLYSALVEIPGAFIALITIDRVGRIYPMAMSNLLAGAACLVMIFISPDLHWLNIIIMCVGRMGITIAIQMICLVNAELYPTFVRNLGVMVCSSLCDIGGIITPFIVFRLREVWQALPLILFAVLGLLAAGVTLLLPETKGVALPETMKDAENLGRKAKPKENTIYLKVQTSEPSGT

[36] = molecular target: MHV-CoV 3CLpro (Murine coronavirus, UniProt P0C6X9)
Sequence of MHV-CoV 3CLpro (P0C6X9 3334-3635 limits assumed): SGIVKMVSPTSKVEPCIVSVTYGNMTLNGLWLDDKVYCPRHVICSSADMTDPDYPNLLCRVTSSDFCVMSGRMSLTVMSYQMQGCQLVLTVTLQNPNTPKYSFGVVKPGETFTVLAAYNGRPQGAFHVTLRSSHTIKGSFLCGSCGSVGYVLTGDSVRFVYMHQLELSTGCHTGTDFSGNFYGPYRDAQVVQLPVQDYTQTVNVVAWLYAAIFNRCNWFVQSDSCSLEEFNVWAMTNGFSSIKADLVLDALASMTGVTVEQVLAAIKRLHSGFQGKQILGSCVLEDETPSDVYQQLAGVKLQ

[37] = pH 7.4
[38] = tested on: P-gp (also known as MDR1 or ABCB1); conditions: not told; cited from earlier work
[39] = tested on: HeLa-ACE2 cells
[40] = cytochrome P450 metabolism, HLM
[41] = molecular target: HKU9-CoV 3CLpro (Bat coronavirus HKU9, UniProt P0C6W5); type: biochemical
Sequence of HKU9-CoV 3CLpro (P0C6W5 3104-3409 limits assumed): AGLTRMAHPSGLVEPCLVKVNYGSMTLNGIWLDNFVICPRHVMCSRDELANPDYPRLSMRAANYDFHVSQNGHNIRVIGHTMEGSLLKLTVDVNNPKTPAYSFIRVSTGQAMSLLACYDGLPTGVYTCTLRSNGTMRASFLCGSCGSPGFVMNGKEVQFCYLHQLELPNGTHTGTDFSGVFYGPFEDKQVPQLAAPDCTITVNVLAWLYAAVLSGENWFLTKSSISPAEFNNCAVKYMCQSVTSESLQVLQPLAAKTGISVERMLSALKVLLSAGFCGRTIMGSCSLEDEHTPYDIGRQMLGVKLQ

[42] = molecular target: CYP2C8 (Homo sapiens, UniProt P10632); test: biochemical
[43] = in vitro; conditions: human; remark: listed apart in the source
[44] = tested on: CYP3A4/5
[45] = molecular target: HIV-1 protease (Human immunodeficiency virus type 1 group M subtype B, UniProt P04585); test: biochemical
[46] = molecular target: MATE2K (Homo sapiens, UniProt Q86VL8)
Sequence of MATE2K (Q86VL8 other isoform, or with tags, fused parts or gaps): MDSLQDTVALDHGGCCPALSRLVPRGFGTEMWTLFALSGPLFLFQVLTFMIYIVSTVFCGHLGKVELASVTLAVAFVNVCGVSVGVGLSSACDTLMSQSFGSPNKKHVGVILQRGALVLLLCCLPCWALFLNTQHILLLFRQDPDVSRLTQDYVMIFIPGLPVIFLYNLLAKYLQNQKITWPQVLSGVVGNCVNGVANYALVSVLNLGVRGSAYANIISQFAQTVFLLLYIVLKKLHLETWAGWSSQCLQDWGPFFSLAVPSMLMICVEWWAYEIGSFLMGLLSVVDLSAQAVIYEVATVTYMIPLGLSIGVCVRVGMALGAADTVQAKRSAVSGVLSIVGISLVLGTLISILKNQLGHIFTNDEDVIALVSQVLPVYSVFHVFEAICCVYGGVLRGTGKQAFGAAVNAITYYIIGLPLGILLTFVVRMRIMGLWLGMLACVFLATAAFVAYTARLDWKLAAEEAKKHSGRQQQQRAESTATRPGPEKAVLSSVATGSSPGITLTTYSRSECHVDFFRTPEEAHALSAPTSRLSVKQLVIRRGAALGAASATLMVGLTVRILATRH

[47] = tested on: Vero E6-enACE2 cells; conditions: read-out: CC50 μM GeoMean (95% CI)
[48] = molecular target: OATP1B3 (Homo sapiens, UniProt Q9NPD5)
[49] = molecular target: OAT1 (Homo sapiens, UniProt Q4U2R8)
[50] = tested on: SARS2 BetaCov GHB-03021/2020; test: microbe, parasite or virus in culture; type: cell-based, SARS-CoV-2; conditions: Severe acute respiratory syndrome coronavirus 2; in the presence of the P-gp inhibitor
[51] = Intravenous pharmacokinetics of parent compound in rats, dogs and monkeys
[52] = tested on: CYP3A; test: in vitro; conditions: human, microsomes
[53] = molecular target: HKU4-CoV 3CLpro (Bat coronavirus HKU4, UniProt P0C6W3); type: biochemical
[54] = tested on: Human Chymotrypsin; type: biochemical
[55] = molecular target: Human Cathepsin D (Homo sapiens, UniProt P07339); test: biochemical
[56] = molecular target: SARS-CoV-2 3CLpro (Severe acute respiratory syndrome coronavirus 2, UniProt P0DTD1); test: Thermal-shift binding assay; conditions: n=8
[57] = Severe acute respiratory syndrome coronavirus 2, HeLa-ACE2, 24 h
[58] = read-out: EC50 μM GeoMean (95% CI)
[59] = IV, 1 or 2 mg/kg, across species

`CCC(CC)COC(=O)[C@H](C)N[P@](=O)(OC[C@H]1O[C@@](C#N)(c2ccc3c(N)ncnn23)[C@H](O)[C@@H]1O)Oc1ccccc1` [remdesivir, reference compound] gave an EC50 [1, 57] of 73.9 nM, an EC90 [1, 57] of 168 nM and an EC50 ([2]; 24 hours post infection) of 442 nM. The EC90 ([2]; 24 hours post infection) was 1190 nM, the EC50 ([2]; 48 hours post infection) was 238 nM and the EC90 ([2]; 48 hours post infection) was 592 nM. For the same molecule, the “fold reduction in virion replication” value ([3]; 0.5 μM) was 93.1 fold and the “fold reduction in virion replication” value ([3]; 10 μM) was 2590 fold.

In the case of `COc1cccc2[nH]c(C(=O)N[C@@H](CC(C)C)C(=O)N[C@@H](C[C@@H]3CCNC3=O)C(=O)COP(=O)(O)O)cc12` [Example 49], the “Increase in Total Impurities (%) - 4 days” value (“Increase … (%) - 4 days” for short) (pH 3) is reported as 0.8% and 1.2%, the “Increase … (%) - 4 days” value (pH 4) is reported as 1.4% and 1.5% and 1.6% and the “Increase … (%) - 4 days” value (pH 5) is reported as 4.3% and 4.1% and 3.6%. For the same molecule, the “projected unbound human Cmax” value ([4]; human) was 0.17 µM, the “hERG current amplitude: no inhibition at up to” value [5] was 300 µM and the EC50 ([6]; Human coronavirus 229E, MRC5, read-out: EC50 μM GeoMean (95% CI)) was 0.074 µM. The EC50 [6, 58] was 0.058 µM, the CC50 [7] was > 100 µM and the solubility [8] was > 200 mg/mL. The “Total Impurities (%)” value ([9]; pH 1.9) was 3.2% and 5.4% and 8.9%, the “Total Impurities (%)” value ([9]; pH 2.9) was 2.0% and 2.5% and 3.0% and the “Total Impurities (%)” value ([9]; pH 4.2) was 3.0% and 3.8% and 6.5%.

For `COc1cccc2[nH]c(C(=O)N[C@@H](CC(C)C)C(=O)N[C@@H](C[C@@H]3CCNC3=O)C(=O)CO)cc12` [parent compound, N-((1S)-1-{[((1S)-3-hydroxy-2-oxo-1-{[(3S)-2-oxopyrrolidin-3-yl]methyl}propyl)amino]carbonyl}-3-methylbutyl)-4-methoxy-1H-indole-2-carboxamide], the Ki [10] was 0.03 nM, the IC50 [11] was > 20 µM and the “secondary (off-target) pharmacology” value [12] was “minimal potential”. For the same molecule, the IC50 [13] was > 20 µM, the IC50 [14] was > 200 µM and the EC90 ([15]; in the presence of the P-gp inhibitor) was 480 nM. The EC50 [15, 58] was 0.23 µM, the Ki [16] was 0.1 ± 0.1 nM and the EC90 [1] was 400 nM. The EC50 [1, 57] was 144 nM, the EC90 [1, 57] was 398 nM and the IC50 [17] was > 200 µM. For the same molecule, the Ki [18] was 4 ± 0.4 nM, the IC50 [19] was > 20 µM and the “projected unbound human Cmax” value ([4]; at the projected human efficacious dose) was 0.50 µM. The predicted half-life ([4]; humans, predicted) was “approximately 2 h”, the “predicted steady state volume of distribution (Vdss)” value ([4]; humans, predicted) was 1 L/kg and the “predicted plasma clearance (CLp)” value ([4]; humans, predicted from in vitro metabolism and animal PK) was ~6 mL/min/kg. The compound-related findings [20] was “minimal, non-adverse effects on clinical chemistry parameters”, the “tolerated dose, highest feasible dose tested” value [20] was 246 mg/kg/day and the “hERG current amplitude: no inhibition at up to” value [5] was 300 µM. The IC50 [21] was > 100 µM, the bioavailability [22] was < 2% and the micronuclei formation [23] was “did not induce micronuclei formation”. For the same molecule, the CC50 ([24]; efflux inhibitor 0) was > 100 µM, the CC50 ([24]; efflux inhibitor 0.5 μM) was > 100 µM and the CC50 ([24]; efflux inhibitor 2 μM) was > 50 µM. For the same molecule, the IC50 [25] was > 200 µM, the IC50 [26] was > 200 µM and the IC50 [27] was > 20 µM. The EC50 ([2]; 24 hours post infection) was 221 nM, the EC90 ([2]; 24 hours post infection) was 734 nM and the EC50 ([2]; 48 hours post infection) was 158 nM. The EC90 ([2]; 48 hours post infection) was 439 nM, the “Hill coefficient (m), slope of dose response” value ([2]; across a range of in vitro antiviral assays) was 3 and the IC50 [28] was > 200 µM. For the same molecule, the IC50 [29] was 6.12 µM, the “margin of human cathepsin B activity compared to 3CLpro” value [29] was 1000 fold and the Ki [30] was 0.3 ± 0.1 nM. The “CYP involved in the metabolism” value [31] was “major CYP involved in the metabolism”, the IC50 [32] was > 20 µM and the IC50 [33] was > 20 µM. For the same molecule, the IC50 [34] was > 33.3 µM, the IC50 [35] was > 20 µM and the Ki [36] was 1.2 ± 0.9 nM. For the same molecule, the SFLogD7.4 [37] was 1.7, the P-gp substrate status [38] was “known substrate” and the host cell cytotoxicity [39] was “No host cell cytotoxicity was observed”. The “unbound CIint” value [40] was 14 µL/min/mg, the Ki [41] was 0.8 ± 0.6 nM and the IC50 [42] was > 200 µM. The CC50 [43] was > 10 µM, the “time dependent inhibition of CYP3A4/5” value [44] was “weak signal” and the IC50 [45] was > 11.1 µM. For the same molecule, the IC50 [46] was > 20 µM, the CC50 ([47]; efflux inhibitor 0) was > 100 µM and the CC50 ([47]; efflux inhibitor 0.5 μM) was > 100 µM. The CC50 ([47]; efflux inhibitor 2 μM) was > 100 µM, the IC50 [48] was > 20 µM and the IC50 [49] was > 20 µM. The EC90 [50] was 1600 nM, the plasma clearances [51, 59] was 35-60 % liver blood flow and the volumes of distribution [51, 59] was < 1 L/kg. The “eliminated unchanged in the urine” value ([51]; rat, dog and monkey) was “approximately 10%”, the IC50 [52] was > 200 µM and the Ki [53] was 0.03 ± 0.08 nM. For the same molecule, the IC50 [54] was > 100 µM, the IC50 [55] was > 11.1 µM and the “melting temperature (Tm) of SARS-CoV-2 3CLpro with compound bound” value [56] was 70.5+/−0.12 °C. The EC90 ([3]; Severe acute respiratory syndrome coronavirus 2, HAE, antiviral time course, preliminary data, read-out: unbound EC90) was < 500 nM.
